Results taken from US9549932B2, “2-(morpholin-4-yl)-1,7-naphthyridines” (BAYER PHARMA AKTIENGESELLSCHAFT, priority 2014, dated 2017).

target: full-length human ATR protein (Homo sapiens (Human), UniProt Q13535); experiment: Binding assay ATR (TR-FRET tracer displacement); details: read-out: ATR binding (tracer A) IC50
Text: To determine of binding activity of the test compounds, full-length human ATR protein was expressed and purified together with ATRIP as described above. Furthermore, a fluorescently labelled compound (either tracer A or B as described above) was used as a tracer molecule. Detection of the binding event of the tracer was achieved by time-resolved fluorescence energy transfer (TR-FRET). We used an anti-GST-Terbium antibody (CisBio) that binds to the GST-tag at the N-terminus of ATR-kinase. […] Displacement of the fluorescent tracer by a test compound leads to a reduction of the TR-FRET-signal.
For the assay 50 nl of a 100-fold concentrated solution of the test compound in DMSO was pipetted into a black low volume 384well microtiter plate (MTP, Greiner Bio-One, Frickenhausen, Germany). […] The ATR-working solution was incubated for 30 min at 22° C. prior to dispensing to pre-form the complex of antiGST-Tb+GST-ATR+ATRIP. Then, 3 μl of the ATR-working solution were added to the test compound and the mixture was incubated for 10 min at 22° C. to allow pre-binding of the test compounds to ATR/ATRIP. Then, 2 μl of a 100 nM solution of either tracer A or B in assay buffer were added to the ATR-working solution. The resulting mixture was incubated for 30 min at 22° C. […] The dilution series were prepared separately before the assay on the level of the 100 fold concentrated solutions in DMSO by serial 1:3.4 dilutions in duplicate values for each concentration. IC50 values were calculated by a 4 parameter fit using standard software (GraphPad prism or equivalent).

Sequence of full-length human ATR protein (Q13535 other isoform, or with tags, fused parts or gaps): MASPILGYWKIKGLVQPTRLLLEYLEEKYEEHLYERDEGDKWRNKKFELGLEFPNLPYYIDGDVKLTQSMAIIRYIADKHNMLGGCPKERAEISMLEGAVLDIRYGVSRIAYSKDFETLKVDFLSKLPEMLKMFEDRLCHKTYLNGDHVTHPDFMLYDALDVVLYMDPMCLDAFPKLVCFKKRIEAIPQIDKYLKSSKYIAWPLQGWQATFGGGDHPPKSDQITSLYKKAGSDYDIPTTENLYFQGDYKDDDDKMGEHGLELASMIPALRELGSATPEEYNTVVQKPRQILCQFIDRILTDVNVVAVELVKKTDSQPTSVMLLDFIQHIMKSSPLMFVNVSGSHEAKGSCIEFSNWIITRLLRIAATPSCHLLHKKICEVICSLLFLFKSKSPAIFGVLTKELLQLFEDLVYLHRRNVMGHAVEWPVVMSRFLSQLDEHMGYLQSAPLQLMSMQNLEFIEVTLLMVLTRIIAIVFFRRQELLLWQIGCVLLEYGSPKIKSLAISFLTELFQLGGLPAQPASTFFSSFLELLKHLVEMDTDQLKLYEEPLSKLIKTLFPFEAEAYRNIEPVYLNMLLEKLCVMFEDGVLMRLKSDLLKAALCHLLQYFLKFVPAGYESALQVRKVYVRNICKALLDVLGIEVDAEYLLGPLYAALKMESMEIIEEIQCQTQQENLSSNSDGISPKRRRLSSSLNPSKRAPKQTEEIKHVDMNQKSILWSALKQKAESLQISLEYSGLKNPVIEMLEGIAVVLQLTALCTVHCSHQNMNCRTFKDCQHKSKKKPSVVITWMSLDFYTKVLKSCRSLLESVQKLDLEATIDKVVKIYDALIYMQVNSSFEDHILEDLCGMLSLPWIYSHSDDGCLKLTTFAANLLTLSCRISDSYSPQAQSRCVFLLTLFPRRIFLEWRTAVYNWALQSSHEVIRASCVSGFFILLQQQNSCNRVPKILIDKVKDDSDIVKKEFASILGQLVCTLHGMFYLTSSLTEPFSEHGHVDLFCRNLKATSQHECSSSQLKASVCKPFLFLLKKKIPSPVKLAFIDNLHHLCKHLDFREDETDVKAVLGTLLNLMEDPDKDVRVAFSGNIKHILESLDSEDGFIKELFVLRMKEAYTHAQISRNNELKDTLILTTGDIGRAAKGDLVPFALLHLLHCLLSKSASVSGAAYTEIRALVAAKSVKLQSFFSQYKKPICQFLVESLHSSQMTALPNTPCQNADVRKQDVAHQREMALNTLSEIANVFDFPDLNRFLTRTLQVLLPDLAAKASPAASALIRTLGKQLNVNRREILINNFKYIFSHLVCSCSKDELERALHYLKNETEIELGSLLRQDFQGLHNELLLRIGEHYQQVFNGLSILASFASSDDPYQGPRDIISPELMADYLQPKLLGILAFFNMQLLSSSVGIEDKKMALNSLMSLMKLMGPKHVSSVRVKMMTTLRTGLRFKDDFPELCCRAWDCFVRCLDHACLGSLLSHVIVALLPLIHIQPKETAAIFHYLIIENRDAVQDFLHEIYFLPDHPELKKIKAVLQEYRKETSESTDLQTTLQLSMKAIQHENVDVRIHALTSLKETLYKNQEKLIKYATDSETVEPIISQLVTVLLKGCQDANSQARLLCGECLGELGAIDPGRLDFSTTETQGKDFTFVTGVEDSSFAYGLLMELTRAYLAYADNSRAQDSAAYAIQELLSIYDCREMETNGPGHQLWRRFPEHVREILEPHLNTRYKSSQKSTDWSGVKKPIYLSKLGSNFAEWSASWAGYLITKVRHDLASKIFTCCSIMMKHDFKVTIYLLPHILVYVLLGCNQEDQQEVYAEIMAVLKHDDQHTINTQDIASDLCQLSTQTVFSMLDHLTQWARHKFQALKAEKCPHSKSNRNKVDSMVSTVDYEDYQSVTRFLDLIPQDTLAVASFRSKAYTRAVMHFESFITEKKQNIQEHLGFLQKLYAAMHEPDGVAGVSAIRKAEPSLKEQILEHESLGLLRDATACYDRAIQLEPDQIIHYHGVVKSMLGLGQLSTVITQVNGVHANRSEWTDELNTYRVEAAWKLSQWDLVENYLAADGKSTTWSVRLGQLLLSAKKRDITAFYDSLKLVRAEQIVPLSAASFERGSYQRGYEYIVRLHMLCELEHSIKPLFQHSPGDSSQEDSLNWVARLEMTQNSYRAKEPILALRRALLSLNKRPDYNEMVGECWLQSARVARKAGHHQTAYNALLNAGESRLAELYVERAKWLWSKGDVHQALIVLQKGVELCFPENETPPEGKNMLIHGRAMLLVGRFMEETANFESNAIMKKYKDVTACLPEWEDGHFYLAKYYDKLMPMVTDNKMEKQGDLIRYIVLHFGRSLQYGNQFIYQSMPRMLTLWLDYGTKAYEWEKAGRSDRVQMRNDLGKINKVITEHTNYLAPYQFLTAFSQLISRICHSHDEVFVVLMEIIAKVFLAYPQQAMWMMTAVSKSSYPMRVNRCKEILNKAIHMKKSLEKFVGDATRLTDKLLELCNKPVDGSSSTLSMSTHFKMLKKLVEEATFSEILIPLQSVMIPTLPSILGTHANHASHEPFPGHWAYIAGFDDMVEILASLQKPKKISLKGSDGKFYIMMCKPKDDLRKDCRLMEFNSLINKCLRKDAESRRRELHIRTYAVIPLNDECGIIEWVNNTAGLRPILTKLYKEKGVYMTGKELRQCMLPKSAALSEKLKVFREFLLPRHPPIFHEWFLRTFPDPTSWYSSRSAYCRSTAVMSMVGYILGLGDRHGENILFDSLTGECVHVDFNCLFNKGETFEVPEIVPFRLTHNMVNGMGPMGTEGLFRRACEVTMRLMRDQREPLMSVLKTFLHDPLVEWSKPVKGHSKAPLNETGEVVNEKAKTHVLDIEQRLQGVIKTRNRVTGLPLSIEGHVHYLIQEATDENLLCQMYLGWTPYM
Sequence of full-length human ATR protein (Q8WXE1 other isoform, or with tags, fused parts or gaps partner): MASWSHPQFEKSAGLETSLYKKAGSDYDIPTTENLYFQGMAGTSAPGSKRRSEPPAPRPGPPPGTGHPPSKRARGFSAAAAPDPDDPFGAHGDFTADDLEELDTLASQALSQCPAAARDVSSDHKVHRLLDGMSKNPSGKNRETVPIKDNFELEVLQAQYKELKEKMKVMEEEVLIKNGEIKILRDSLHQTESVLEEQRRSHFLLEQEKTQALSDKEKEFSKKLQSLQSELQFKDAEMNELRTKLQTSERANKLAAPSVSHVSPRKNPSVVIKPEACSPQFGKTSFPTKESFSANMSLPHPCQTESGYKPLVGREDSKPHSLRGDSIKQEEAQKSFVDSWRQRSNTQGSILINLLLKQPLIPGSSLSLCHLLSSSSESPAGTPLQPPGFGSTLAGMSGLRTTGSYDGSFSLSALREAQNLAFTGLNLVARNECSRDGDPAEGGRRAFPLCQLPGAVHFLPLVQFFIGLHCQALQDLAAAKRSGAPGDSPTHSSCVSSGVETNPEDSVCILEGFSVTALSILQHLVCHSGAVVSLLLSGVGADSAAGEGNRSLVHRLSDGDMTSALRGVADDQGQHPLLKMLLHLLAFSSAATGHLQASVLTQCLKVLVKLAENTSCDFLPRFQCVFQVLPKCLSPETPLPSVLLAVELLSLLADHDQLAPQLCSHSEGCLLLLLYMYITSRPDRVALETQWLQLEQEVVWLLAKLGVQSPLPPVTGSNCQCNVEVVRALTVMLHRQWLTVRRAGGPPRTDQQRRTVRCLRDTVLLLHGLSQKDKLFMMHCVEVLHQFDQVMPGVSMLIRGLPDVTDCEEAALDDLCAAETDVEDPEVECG

Row | Compound | IC50 [nM]
1 | COP(=O)(O)c1ccc(-c2cc(N3CCOCC3)nc3c(-c4ccn[nH]4)nccc23)cc1 [Example 181, Methyl hydrogen {4-[2-(morpholin-4-yl)-8-(1H-pyrazol-5-yl)-1,7-naphthyridin-4-yl]phenyl}phosphonate] | 539

same assay, conditions: tracer A, TR-FRET; read-out: ATR binding (tracer A) IC50

Row | Compound | IC50 [nM]
2 | C[C@@H]1COCCN1c1cc(-c2ccc(S(C)(=O)=O)cc2F)c2ccnc(-c3ccn[nH]3)c2n1 [Example 74, 4-[2-fluoro-4-(methylsulfonyl)phenyl]-2-[(3R)-3-methylmorpholin-4-yl]-8-(1H-pyrazol-5-yl)-1,7-naphthyridine] | 7.1
3 | c1cnc2ccc(-c3cc(N4CCOCC4)nc4c(-c5ccn[nH]5)nccc34)cc2c1 [Example 384, 2-(morpholin-4-yl)-8-(1H-pyrazol-5-yl)-4-(quinolin-6-yl)-1,7-naphthyridine] | 89.2
4 | C[C@@H]1COCCN1c1cc(-c2ccc(F)cn2)c2ccnc(-c3ccn[nH]3)c2n1 [Example 163, 4-(5-fluoropyridin-2-yl)-2-[(3R)-3-methylmorpholin-4-yl]-8-(1H-pyrazol-5-yl)-1,7-naphthyridine] | 107
5 | c1cc(-c2nccc3c(N4C5CCC4COC5)cc(N4CCOCC4)nc23)[nH]n1 [Example 174, 2-(morpholin-4-yl)-4-(3-oxa-8-azabicyclo[3.2.1]oct-8-yl)-8-(1H-pyrazol-5-yl)-1,7-naphthyridine] | 213
6 | C[C@@H]1COCCN1c1cc(C2CCS(=O)(=O)CC2)c2ccnc(-c3ccn[nH]3)c2n1 [Example 204, 4-(1,1-dioxidotetrahydro-2H-thiopyran-4-yl)-2-[(3R)-3-methylmorpholin-4-yl]-8-(1H-pyrazol-5-yl)-1,7-naphthyridine] | 6.76
7 | C[C@@H]1COCCN1c1cc(N2CCN(S(C)(=O)=O)CC2)c2ccnc(-c3ccn[nH]3)c2n1 [Example 82, 2-[(3R)-3-methylmorpholin-4-yl]-4-[4-(methylsulfonyl)piperazin-1-yl]-8-(1H-pyrazol-5-yl)-1,7-naphthyridine] | 4.9
8 | COc1cccc(-c2cc(N3CCOCC3)nc3c(-c4ccn[nH]4)nccc23)c1OC [Example 319, 4-(2,3-dimethoxyphenyl)-2-(morpholin-4-yl)-8-(1H-pyrazol-5-yl)-1,7-naphthyridine] | 325
9 | CS(=N)(=O)CCCOc1cc(N2CCOCC2)nc2c(-c3ccn[nH]3)nccc12 (stereo not drawn) [Example 42, 4-[3-(S-methylsulfonimidoyl)propoxy]-2-(morpholin-4-yl)-8-(1H-pyrazol-5-yl)-1,7-naphthyridine] | 484
10 | C[C@@H]1COCCN1c1cc(-c2cccc(S(C)(=O)=O)c2F)c2ccnc(-c3ccn[nH]3)c2n1 [Example 132, 4-[2-fluoro-3-(methylsulfonyl)phenyl]-2-[(3R)-3-methylmorpholin-4-yl]-8-(1H-pyrazol-5-yl)-1,7-naphthyridine] | 23.7
11 | Cc1c(-c2cc(N3CCOC[C@H]3C)nc3c(-c4ccn[nH]4)nccc23)cnn1C [Example 250, 4-(1,5-dimethyl-1H-pyrazol-4-yl)-2-[(3R)-3-methylmorpholin-4-yl]-8-(1H-pyrazol-5-yl)-1,7-naphthyridine] | 6.62
12 | C[C@@H]1COCCN1c1cc(-c2ccc(F)nc2F)c2ccnc(-c3ccn[nH]3)c2n1 [Example 228, 4-(2,6-difluoropyridin-3-yl)-2-[(3R)-3-methylmorpholin-4-yl]-8-(1H-pyrazol-5-yl)-1,7-naphthyridine] | 30.1
13 | C[C@@H]1COCCN1c1cc(OC(F)F)c2ccnc(-c3ccn[nH]3)c2n1 [Example 172, 4-(difluoromethoxy)-2-[(3R)-3-methylmorpholin-4-yl]-8-(1H-pyrazol-5-yl)-1,7-naphthyridine] | 82.8
14 | C1=C(c2cc(N3CCOCC3)nc3c(-c4cc[nH]n4)nccc23)CCOC1 [Example 4, 4-(3,6-dihydro-2H-pyran-4-yl)-2-(morpholin-4-yl)-8-(1H-pyrazol-3-yl)-[1,7]naphthyridine] | 61.7
15 | Cc1ncc(-c2cc(N3CCOC[C@H]3C)nc3c(-c4ccn[nH]4)nccc23)s1 [Example 78, 2-[(3R)-3-methylmorpholin-4-yl]-4-(2-methyl-1,3-thiazol-5-yl)-8-(1H-pyrazol-5-yl)-1,7-naphthyridine] | 11
16 | C[C@@H]1COCCN1c1cc(N2CCCC2)c2ccnc(-c3ccn[nH]3)c2n1 [Example 175, 2-[(3R)-3-methylmorpholin-4-yl]-8-(1H-pyrazol-5-yl)-4-(pyrrolidin-1-yl)-1,7-naphthyridine] | 221
17 | Cc1nnc(-c2cc(N3CCOC[C@H]3C)nc3c(-c4ccn[nH]4)nccc23)o1 [Example 136, 2-[(3R)-3-methylmorpholin-4-yl]-4-(5-methyl-1,3,4-oxadiazol-2-yl)-8-(1H-pyrazol-5-yl)-1,7-naphthyridine] | 35.8

Row | Compound | IC50 [nM]
18 | Cc1cc(-c2cc(N3CCOCC3)nc3c(-c4ccn[nH]4)nccc23)cnc1S(C)(=O)=O [Example 16, 4-[5-methyl-6-(methylsulfonyl)pyridin-3-yl]-2-(morpholin-4-yl)-8-(1H-pyrazol-5-yl)-1,7-naphthyridine] | 173
19 | O=S1(=Nc2cc(N3CCOCC3)nc3c(-c4ccn[nH]4)nccc23)CCOCC1 [Example 279, formic acid - N-[2-(morpholin-4-yl)-8-(1H-pyrazol-5-yl)-1,7-naphthyridin-4-yI]-1,4k4-oxathian-4-imine 4-oxide (1:1)] | 293
20 | Cc1cc(-c2cc(N3CCOCC3)nc3c(-c4ccn[nH]4)nccc23)n[nH]1 [Example 214, 4-(5-methyl-1H-pyrazol-3-yl)-2-(morpholin-4-yl)-8-(1H-pyrazol-5-yl)-1,7-naphthyridine] | 176
21 | COc1cccc(-c2cc(N3CCOCC3)nc3c(-c4ccn[nH]4)nccc23)c1 [Example 306, 4-(3-methoxyphenyl)-2-(morpholin-4-yl)-8-(1H-pyrazol-5-yl)-1,7-naphthyridine] | 82.3
22 | CSc1cc(N2CCOC[C@H]2C)nc2c(-c3ccn[nH]3)nccc12 [Example 63, 2-[(3R)-3-methylmorpholin-4-yl]-4-(methylsulfanyl)-8-(1H-pyrazol-5-yl)-1,7-naphthyridine] | 80.7
23 | Cc1cc(-c2cc(N3CCOC[C@H]3C)nc3c(-c4ccn[nH]4)nccc23)cs1 [Example 234, 2-[(3R)-3-methylmorpholin-4-yl]-4-(5-methylthiophen-3-yl)-8-(1H-pyrazol-5-yl)-1,7-naphthyridine] | 29.2
24 | CC(C)S(=N)(=O)c1ccc(-c2cc(N3CCOCC3)nc3c(-c4ccn[nH]4)nccc23)cc1 (stereo not drawn) [Example 25, 2-(morpholin-4-yl)-4-{4-[S-(propan-2-yl)sulfonimidoyl]phenyl}-8-(1H-pyrazol-5-yl)-1,7-naphthyridine] | 110
25 | COP(=O)(OC)c1ccc(-c2cc(N3CCOCC3)nc3c(-c4ccn[nH]4)nccc23)cc1 [Example 9, Dimethyl {4-[2-(morpholin-4-yl)-8-(1H-pyrazol-5-yl)-1,7-naphthyridin-4-yl]phenyl}phosphonate] | 120
26 | C[C@@H]1CN(c2cc(N3CCOCC3)nc3c(-c4ccn[nH]4)nccc23)C[C@H](C)N1 [Example 179, 4-[(cis)-3,5-dimethylpiperazin-1-yl]-2-(morpholin-4-yl)-8-(1H-pyrazol-5-yl)-1,7-naphthyridine] | 454
27 | CC[S+]([O-])c1cc(N2CCOCC2)nc2c(-c3ccn[nH]3)nccc12 (stereo not drawn) [Example 195, 4-ethylsulfinyl-2-(morpholin-4-yl)-8-(1H-pyrazol-5-yl)-1,7-naphthyridine] | 71.4
28 | Fc1ncccc1-c1cc(N2CCOCC2)nc2c(-c3ccn[nH]3)nccc12 [Example 359, 4-(2-fluoropyridin-3-yl)-2-(morpholin-4-yl)-8-(1H-pyrazol-5-yl)-1,7-naphthyridine] | 85.5
29 | C[C@@H]1COCCN1c1cc(C2=CCCN(C)C2)c2ccnc(-c3ccn[nH]3)c2n1 [Example 242, 2-[(3R)-3-methylmorpholin-4-yl]-4-(1-methyl-1,2,5,6-tetrahydropyridin-3-yl)-8-(1H-pyrazol-5-yl)-1,7-naphthyridine] | 95.9
30 | CS(=O)(=O)C1(c2cc(N3CCOCC3)nc3c(-c4ccn[nH]4)nccc23)CC1 [Example 39, 4-(1-methanesulphonylcyclopropyl)-2-(morpholin-4-yl)-8-(2H-pyrazol-3-yl)-[1,7]naphthyridine] | 60.1
31 | CCS(=O)(=O)N1CCN(c2cc(N3CCOCC3)nc3c(-c4ccn[nH]4)nccc23)CC1 [Example 433, 4-[4-(ethylsulfonyl)piperazin-1-yl]-2-(morpholin-4-yl)-8-(1H-pyrazol-5-yl)-1,7-naphthyridine] | 41.6
32 | C[C@@H]1COCCN1c1cc(N2CCC[C@H]2C(N)=O)c2ccnc(-c3ccn[nH]3)c2n1 [Example 154, 1-{2-[(3R)-3-methylmorpholin-4-yl]-8-(1H-pyrazol-5-yl)-1,7-naphthyridin-4-yl}prolinamide] | 55
33 | [O-][S+](c1ccccc1)c1cc(N2CCOCC2)nc2c(-c3ccn[nH]3)nccc12 (stereo not drawn) [Example 201, 2-(morpholin-4-yl)-4-(phenylsulfinyl)-8-(1H-pyrazol-5-yl)-1,7-naphthyridine] | 40

same assay, conditions: tracer B, TR-FRET; read-out: ATR binding (tracer B) IC50

Row | Compound | IC50 [nM]
34 | CS(=N)(=O)CCCOc1cc(N2CCOCC2)nc2c(-c3ccn[nH]3)nccc12 (stereo not drawn) [Example 42, 4-[3-(S-methylsulfonimidoyl)propoxy]-2-(morpholin-4-yl)-8-(1H-pyrazol-5-yl)-1,7-naphthyridine] | 533
35 | C1=C(c2cc(N3CCOCC3)nc3c(-c4cc[nH]n4)nccc23)CCOC1 [Example 4, 4-(3,6-dihydro-2H-pyran-4-yl)-2-(morpholin-4-yl)-8-(1H-pyrazol-3-yl)-[1,7]naphthyridine] | 43.5
36 | CSc1cc(N2CCOC[C@H]2C)nc2c(-c3ccn[nH]3)nccc12 [Example 63, 2-[(3R)-3-methylmorpholin-4-yl]-4-(methylsulfanyl)-8-(1H-pyrazol-5-yl)-1,7-naphthyridine] | 30.7
37 | CC(C)S(=N)(=O)c1ccc(-c2cc(N3CCOCC3)nc3c(-c4ccn[nH]4)nccc23)cc1 (stereo not drawn) [Example 25, 2-(morpholin-4-yl)-4-{4-[S-(propan-2-yl)sulfonimidoyl]phenyl}-8-(1H-pyrazol-5-yl)-1,7-naphthyridine] | 75.1
38 | COP(=O)(OC)c1ccc(-c2cc(N3CCOCC3)nc3c(-c4ccn[nH]4)nccc23)cc1 [Example 9, Dimethyl {4-[2-(morpholin-4-yl)-8-(1H-pyrazol-5-yl)-1,7-naphthyridin-4-yl]phenyl}phosphonate] | 127
39 | CS(=O)(=O)C1(c2cc(N3CCOCC3)nc3c(-c4ccn[nH]4)nccc23)CC1 [Example 39, 4-(1-methanesulphonylcyclopropyl)-2-(morpholin-4-yl)-8-(2H-pyrazol-3-yl)-[1,7]naphthyridine] | 35.3
